Series [1] can be described thus: Aqueous solubility. It counts as physicochemical. As to conditions: water.
A short description of series [2]: Conversion of prodrug to parent compound 1 after IV dosing (plasma HPLC). It counts as in vivo. To be noted: male Wistar rats; for metabolised at 24 h: rat, n=3, slow IV bolus about 5 mg/kg parent-equivalent, parent compound 1 in plasma up to 24 h; for conversion to parent compound 1 in vivo (in words): IV administration. From the text:
Male Wistar rats weighing 244 to 390 g were used in the in vivo experiments. The day before the experiment, the rats were surgically prepared. Rats were anesthetized with ether, and the right jugular vein was cannulated for intravenous dosing and/or systemic sampling. The cannula was exteriorized at the nape of the rat between the shoulder blades. The animals were allowed to recover overnight from surgery and fasted with water ad libitum.
Dosing solutions of the prodrugs (5, 25, 18, 34, 20c, 20d, 20e, and 20f) were prepared separately in 5% dextrose in water (D5W). Compound 20a was dissolved in 5% ethanol in D5W whereas compound 29 was dissolved in 20% ethanol, 20% polyethylene glycol 400 in D5W. Animals were randomly assigned to groups of three. The prodrug solutions were administered intravenously as a slow bolus at about 5 mg/kg parent-equivalent or orally as a gastric gavage at about 15 mg/kg parent-equivalent (Table 1 on Page 10 contains PO data). The cannula was subsequently rinsed with 1 mL D5W. Systemic blood was sampled predose and at selected times up to 24 hours after dosing. Blood samples (0.5 mL) were collected on ice, heparinized, and immediately centrifuged; then plasma was harvested and stored at -20° C. until analysis by HPLC.
The plasma samples were analyzed by validated HPLC assay for the parent compound 1. Plasma (200 μL) was spiked with 18 μL of internal standard ([2-(1H-indol-3-yl)-1-methyl-1-(1-phenyl-ethylcarbamoyl)-ethyl]-carbimic acid 4-ethyl-benzyl ester; 2.5 μM) and 400 μL acetonitrile (ACN) to precipitate protein. The supernatant was transferred to a clean test tube and evaporated to dryness. The residue was reconstituted in 50:50 ACN:water and injected onto the HPLC.
Detailed bioconversion data often prodrugs is found in Table 1 below.

Where a name gives a salt, the structure may show the parent alone.

A word on the solubility: it is how much of the substance goes into solution per volume.

In the case of `C[C@H](NC(=O)[C@@](C)(Cc1c[nH]c2ccccc12)NC(=O)OCc1cc2ccccc2o1)c1ccccc1` [Compound 1, 2-benzofuranylmethyl [R-(R*,S*)]-[1-(1H-indol-3-ylmethyl)-1-methyl-2-oxo-2-[(1-phenylethyl)amino]ethyl]carbamate, reference compound], in series [1] (parent drug), the solubility is below 1 µg/mL. In the case of `C[C@H](NC(=O)[C@@](C)(Cc1cn(P(=O)(O)O)c2ccccc12)NC(=O)OCc1cc2ccccc2o1)c1ccccc1` [Compound 5, {3-[2-(Benzofuran-2-ylmethoxycarbonylamino)-2-(1-phenyl-ethylcarbamoyl)propyl]-indol-1-yl}-phosphonic acid disodium salt], in series [2], the metabolised at 24 h was determined as 11.7 ± 0.84%. As for `C[C@H](NC(=O)[C@@](C)(Cc1cn(C(=O)OCOC(=O)c2ccc(COP(=O)(O)O)cc2)c2ccccc12)NC(=O)OCc1cc2ccccc2o1)c1ccccc1` [Compound 18, 3-[2-(Benzofuran-2-ylmethoxycarbonylamino)-2-(1-phenyl-ethylcarbamoyl)propyl]-indol-1-carboxylic acid phosphonooxymethylbenzoyloxymethyl ester disodium salt], in series [2], the “conversion to parent compound 1 in vivo (in words)” value (from here on “conversion”) is reported as “highest reconversion” and the metabolised at 24 h was 59.5 ± 21.3%. For `C[C@H](NC(=O)[C@@](C)(Cc1cn(C(=O)OCOC(=O)c2ccc(CN(C)C)cc2)c2ccccc12)NC(=O)OCc1cc2ccccc2o1)c1ccccc1` [Compound 20a, 3-[2-(Benzofuran-2-ylmethoxycarbonylamino)-2-(1-phenyl-ethylcarbamoyl)-propyl]-indole-1-carboxylic acid 4-dimethylaminomethyl-benzoyloxymethyl ester monohydrochloride salt], in series [2], the “conversion” value is “higher conversion than the phosphate prodrugs” and the metabolised at 24 h amounted to 86.9 ± 18.6%. Moreover, in series [1], the “aqueous solubility (in words)” value is listed as “not water-soluble”. Regarding `C[C@H](NC(=O)[C@@](C)(Cc1cn(C(=O)OCOC(=O)c2ccc(CN3CCN(C)CC3)cc2)c2ccccc12)NC(=O)OCc1cc2ccccc2o1)c1ccccc1` [Compound 20c, 3-[2-(Benzofuran-2-ylmethoxycarbonylamino)-2-(1-phenyl-ethylcarbamoyl)-propyl]-indole-1-carboxylic acid 4-(4-methyl-piperazin-1-methyl)-benzoyloxymethyl ester dihydrochloride salt], in series [2], the “conversion” value is given as “comparable reconversion as (20a)” and the metabolised at 24 h came to 68 ± 5.2%. The like results for `C[C@H](NC(=O)[C@@](C)(Cc1cn(C(=O)OCOC(=O)c2ccc(CN3CCN(CCO)CC3)cc2)c2ccccc12)NC(=O)OCc1cc2ccccc2o1)c1ccccc1` [Compound 20d, 3-[2-(Benzofuran-2-ylmethoxycarbonylamino)-2-(1-phenyl-ethylcarbamoyl)-propyl]-indole-1-carboxylic acid 4-[4-(2-hydroxy-ethyl)-piperazin-1-ylmethyl]-benzoyloxymethyl ester dihydrochloride salt] were, in that order, “comparable reconversion as (20a)” and 64.2 ± 14.3%. Consider `C[C@H](NC(=O)[C@@](C)(Cc1cn(C(=O)OCOC(=O)c2ccc(CN3CCNCC3)cc2)c2ccccc12)NC(=O)OCc1cc2ccccc2o1)c1ccccc1` [Compound 20e, 3-[2-(Benzofuran-2-ylmethoxycarbonylamino)-2-(1-phenyl-ethylcarbamoyl)-propyl]-indole-1-carboxylic acid 4-piperazin-1-ylmethyl-benzoyloxymethyl ester dihydrochloride salt], for which, in series [2], the “conversion” value is given as “comparable reconversion as (20a)” and the metabolised at 24 h was determined as 88.5 ± 9.2%. Consider `C[C@H](NC(=O)[C@@](C)(Cc1cn(C(=O)OCOC(=O)c2ccc(CN(C)CCN(C)C)cc2)c2ccccc12)NC(=O)OCc1cc2ccccc2o1)c1ccccc1` [Compound 20f, 3-[2-(Benzofuran-2-ylmethoxycarbonylamino)-2-(1-phenyl-ethylcarbamoyl)-propyl]-indole-1-carboxylic acid 4-{[(2-dimethylamino-ethyl)-methyl-amino]-methyl}-benzoyloxymethyl ester dihydrochloride salt], for which, in series [2], the “conversion” value is listed as “comparable reconversion as (20a)” and the metabolised at 24 h turned out to be 104 ± 38.2%.

As for `C[C@H](NC(=O)[C@@](C)(Cc1cn(C(=O)c2ccccc2COP(=O)(O)O)c2ccccc12)NC(=O)OCc1cc2ccccc2o1)c1ccccc1` [Compound 25, {1-Methyl-1-(1-phenyl-ethylcarbamoyl)-2-[1-(2-phosphonooxymethyl-benzoyl)-1H-indol-3-yl]-ethyl}-carbamic acid benzofuran-2-ylmethyl ester disodium salt], the metabolised at 24 h in series [2] is 19.9 ± 1.07%. Regarding `Cc1cc(C)c(C(C)(C)CC(=O)n2cc(C[C@@](C)(NC(=O)OCc3cc4ccccc4o3)C(=O)N[C@@H](C)c3ccccc3)c3ccccc32)c(OP(=O)(O)O)c1` [Compound 34, [2-{1-[3-(2,4-Dimethyl-6-phosphonooxy-phenyl)-3-methylbutyryl]-1H-indol-3-yl}-1-methyl-1-(1-phenylethylcarbamoyl)ethyl]carbamic acid benzofuran-2-ylmethyl ester disodium salt], in series [2], the “conversion” value was “lowest bioconversion in vivo”. Moreover, in series [2] (in vivo), the metabolised at 24 h worked out at 9.35 ± 4.12%.

These data come from patent publication US6258800A, “Prodrugs of benzofuranylethyl carbamate NK1 antagonists” (Warner-Lambert Company, priority 2000, dated 2001).
